Data as given in patent US20180267025A1, “CANCER ANALYSIS SYSTEM” (Xcell Biosciences, Inc., priority 2013, published 2018).

Tested on: single cells
Test: chemosensitivity assay on single cells (live-cell imaging, FIG. 10)
Type: cell-based
Conditions: single cell imaged before, upon addition, and 2 minutes and 5 minutes after Y-27632 treatment
Description: FIG. 10 depicts a chemosensitivity assay conducted on single cells. Target cell subpopulations can be used for personalized medicine. In the instance of CTCs and CSCs, cells can be used for chemosensitivity testing on whereby standard and exploratory chemotherapy regimens can be tested on cultured CTCs and determination of the effects of chemotherapy drugs on CTCs, including cell viability and cell division rates measurement to determine the efficacy of a given drug. An example of how a chemosensitivity assay can be applied is depicted in FIG. 10. […] In this example, Rho Kinase inhibitor, Y-27632 was used (Ishizaki et al. 2000 Pharmacological Properties of Y-27632, a specific inhibitor of rho-associated kinases. Mol Pharmacol. 57(5):976-83). […] The plasma membrane of the cell retracts upon drug treatment after 2 minutes 1015 and 5 minutes 1020.

SMILES: C[C@@H](N)[C@H]1CC[C@H](C(=O)Nc2ccncc2)CC1 [Y-27632]
- effect on cell adhesions and plasma membrane of a single cell upon drug treatment: loss of adhesions and retraction of the plasma membrane
